Data taken from patent publication US8133471B2, “CLK-peptide and SLK-peptide” (New York University, priority 2003, dated 2012).

Legend:
[1] = system: GL261 tumor cells; assay: GL261 cell migration on denatured collagen type-IV (transwell); type: cell-based, murine; conditions: 50 μg/ml; 6 hours; versus controls
Procedure: FIG. 22 Effects of CLK-Peptide on Tumor Cell Migration. In cell migration assays, CLK-peptide (50 μg/ml) inhibited GL261 cell migration on denatured collagen type-IV by approximately 50% as compared to control.
The effects of CLK-peptide on invasive tumor cell migration and proliferation in vitro were examined. Membranes from transwell chambers and microtiter wells (in proliferation assays) were coated with denatured collagen type-IV (10 μg/ml). GL261 cells were resuspended in either migration buffer or proliferation buffer in the presence or absence of CLK-peptide or control (50 μg/ml). In the cell migration experiments, GL261 tumor cells were allowed to migrate for 6 hours. Tumor cells that had migrated to the underside of the coated membranes were quantified by staining with crystal violet, and the optical densities of cell-associated dye were measured with a microplate reader at a wavelength of 600 nm.

[2] = system: Human melanoma cells (M21); assay: M21 cell adhesion to denatured or native collagen type-IV or fibronectin (Example 9); type: cell-based
Procedure: Non-tissue culture treated 48-well plates were coated with denatured collagen type-IV at 10 μg/ml. […] Cell adhesion was quantified by measuring the O.D. of eluted dye at 600 nm. Data bars represent the mean O.D.±standard deviation from triplicate wells. Assays were completed 2 to 3 times with similar results.
Non-tissue culture treated 48-well plates were coated with native collagen type-IV or fibronectin at 10 μg/ml. Human melanoma cells (M21) were allowed to attach to the coated wells in the presence or absence of CLK-Peptide or control peptide CTW at 0-100 μg/ml. Cell adhesion was quantified by measuring the O.D. of eluted dye at 600 nm. Data bars represent the mean O.D.±standard deviation from triplicate wells. Assays were completed 2 to 3 times with similar results. A. Adhesion to native collagen type-IV. B. Adhesion to Fibronectin.
Adhesion assays were performed to study the effects of CLK-peptide on tumor cell adhesion in vitro. Microtiter wells were coated with either native collagen type-IV or the control ECM protein fibronectin. Malignant melanoma cells (M21) were allowed to bind to the coated substrates in the presence or absence of CLK peptide or a control peptide, CTW.

[3] = system: GL261 tumor cells; assay: GL261 cell migration, CLK-peptide combined with ionizing radiation (Example 22); type: cell-based, murine; conditions: 50 μg/ml + 5.0 Gy; 6 hours; versus controls
Procedure: The effects, of combining CLK-peptide with radiation therapy, on invasive tumor cell migration are examined. GL261 cells are resuspended in migration buffer in the presence or absence of CLK-peptide or control (50 μg/ml). The cells are added to the coated wells and allowed to incubate for 1 hour, and either left untreated or irradiated with a single fraction dose of ionizing radiation (5.0 Gy). The GL261 tumor cells are allowed to migrate for 6 hours. Tumor cells that have migrated to the underside of the coated membranes are quantified by staining with crystal violet, and the optical densities of cell-associated dye are measured with a microplate reader at a wavelength of 600 nm. CLK-peptide in combination with ionizing radiation is found to inhibit GL261 cell migration on denatured collagen type-IV substantially when compared to controls.

[4] = system: Human melanoma cells M21; assay: M21 melanoma cell adhesion to denatured collagen type-IV (Example 2); type: cell-based; conditions: M21 cells on denatured collagen type-IV; peptide 250 μg/ml
From the text: FIG. 1 is a chart which illustrates M21 human melanoma cell adhesion to untreated denatured type-IV collagen (NT), CLK-peptide treated denatured collagen type-IV, SLK-peptide treated denatured collagen type-IV, and SDR-peptide treated denatured collagen type-IV.
SLK peptides bind to functional epitopes within denatured collagen type-IV that regulate cellular adhesion. Non-tissue culture treated 48-well plates were coated with denatured collagen type-IV. Human melanoma cells M21 (Scripps Research Institute, La Jolla, Calif.) were allowed to attach to the coated wells in the presence or absence of the synthetic peptides CLK, SLK, and SDR, each peptide was at a concentration of 250 μg/ml. SDR peptide is a commercially available peptide that was used as a control (QED Bioscience, Inc., San Diego, Calif.).
Human denatured collagen type-IV (25 μg/ml) was immobilized on 48-well nontissue culture treated plates. Wells were washed and incubated with 1% BSA (bovine serum albumin) in PBS (phosphate-buffered saline) for one hour at 37° C. Subconfluent […] were harvested, washed, and resuspended in adhesion buffer containing RPMI-1640 medium, 1 mM MgCl2, 0.2 mM MnCl2, and 0.5% BSA. […] Cell adhesion was quantified by measuring the optical density of eluted crystal violet at a wavelength of 600 nm.

[5] = system: intact triple helical collagen type-IV; assay: Solid phase ELISA, labeled CLK-peptide binding to native collagen type-IV
Procedure: FIG. 15 CLK-Peptide Reacts with a Cryptic Epitope in Collagen Type-IV In Vitro. Reactivity of biotin-labeled CLK-Peptide was assessed by solid phase ELISA. Reactivity was monitored by incubation with HRP-labeled streptavidin. […] All data was corrected for nonspecific binding of HRP-labeled streptavidin only. Data bars represent the mean optical density (O.D.)±standard deviation from triplicate wells. Assays were repeated 2 to 3 times with similar results.
The CLK-peptide was labeled with HRP and used in solid phase ELISA to assess differential binding to either native or denatured collagen type-IV. Microtiter plates were coated with either native or denatured collagen type-IV and HRP-labeled CLK-peptide was allowed to bind. […] In contrast, CLK-Peptide readily bound to denatured collagen type-IV. […] To determine whether this cryptic epitope was also exposed within the ECM in vivo, biotin-labeled CLK-peptide was used to stain M21 human melanoma tumors growing in nude mice (results shown in FIGS. 16A and B and described in Example 15).

[6] = system: Metastatic B16 murine melanoma cells; assay: B16 melanoma cell adhesion to native or denatured collagen type-IV (Example 3); type: cell-based
From the text: FIG. 2 is a chart which illustrates B16 murine melanoma cell adhesion to untreated denatured collagen type-IV (NT), CLK-peptide treated denatured collagen type-IV, and SHR-peptide treated denatured collagen type-IV.
Non-tissue culture treated 48-well plates were coated with either native (triple helical) or denatured collagen type-IV. Metastatic B16 murine melanoma cells were allowed to attach to the coated wells in the presence or absence of either CLK or SHR (control) peptide. CLK-peptide blockade of B16 cell adhesion to denatured type-IV collagen exceeded 95% (FIG. 2). CLK-peptide had little effect on B16 melanoma cell adhesion to native collagen type-IV.

binding to intact triple helical collagen type-IV [5]: little if any binding
Substance: H-CLKQNGGNFSLG-OH [CLK-peptide, NH2-C-L-K-Q-N-G-G-N-F-S-L-G-COOH]
inhibition of GL261 cell migration on denatured collagen type-IV [1]: approximately 50%
effect on M21 cell adhesion to fibronectin ([2]; 0-100 μg/ml): Neither CLK-Peptide nor the control peptide had any effect
effect on M21 cell adhesion to native triple helical collagen type-IV ([2]; 0-100 μg/ml): Neither CLK-Peptide nor the control peptide had any effect
maximal inhibition of M21 cell attachment to denatured collagen type-IV ([2]; at 100 μg/ml): approximately 65%
inhibition of GL261 cell migration on denatured collagen type-IV in combination with ionizing radiation [3]: substantially
blockade of melanoma cell adhesion [4]: exceeded 95%
blockade of B16 cell adhesion to denatured type-IV collagen ([6]; wells coated with denatured collagen type-IV): exceeded 95%
effect on B16 melanoma cell adhesion to native collagen type-IV ([6]; wells coated with native (triple helical) collagen type-IV): little effect
